Like-named read-outs stand apart in the source and are kept apart here.
Experiment: First-in-human phase 1 study: pharmacokinetics parameters of GDC-0853 (plasma) on day 1 and day 15
Type: in vivo
Conditions: for AUC(0-inf): read-out: Day 1 AUC0-inf Mean (%CV)
Source text: Table 3 Summary of pharmacokinetics parameters for GDC-0853 on day 1 and day 15 (cohorts 1, 2, and 3, with 100, 200, and 400-mg GDC-0853, respectively) | column: Day 1 T1/2 (hr) Mean (%CV); Day 1 Tmax^a (hr) Median (range); Day 1 Cmax (μM) Mean (%CV); Day 1 AUC0-inf (hr•μM) Mean (%CV); Day 1 AUC0-24 (hr*μM) Mean (%CV); Day 15 Tmax^a(hr) Median (range); Day 15 Cmax (μM) Mean (%CV); Day 15 AUC0- 24 (hr•μM) Mean (%CV); Day 15 Accumulation Ratio Mean (%CV)

- Day 15 Accumulation Ratio Mean (%CV) (100 mg (n = 6), cohort 1, day 15): 1.78 (58.4)
- Day 15 Accumulation Ratio Mean (%CV) (200 mg (n = 9), cohort 2, day 15): 1.44 (77.9)
- Day 15 Accumulation Ratio Mean (%CV) (400 mg (n = 9), cohort 3, day 15): 1.91 (102)
- Cmax (human, plasma, 100 mg, 100 mg (n = 6), cohort 1, day 1, plasma, read-out: Day 1 Cmax Mean (%CV)): 119 nM
- AUC(0-t) (human, plasma, 100 mg, 100 mg (n = 6), cohort 1, day 1, read-out: Day 1 AUC0-24 Mean (%CV)): 0.67 µM·h
- AUC(0-t) (human, plasma, 100 mg, 100 mg (n = 6), cohort 1, day 15, read-out: Day 15 AUC0-24 Mean (%CV)): 1.2 µM·h
- Cmax (human, plasma, 200 mg, 200 mg (n = 9), cohort 2, day 1, plasma, read-out: Day 1 Cmax Mean (%CV)): 571 nM
- AUC(0-t) (human, plasma, 200 mg, 200 mg (n = 9), cohort 2, day 1, read-out: Day 1 AUC0-24 Mean (%CV)): 2.54 µM·h
- Cmax (human, plasma, 200 mg, 200 mg (n = 9), cohort 2, day 15, plasma, read-out: Day 15 Cmax Mean (%CV)): 614 nM
- AUC(0-t) (human, plasma, 200 mg, 200 mg (n = 9), cohort 2, day 15, read-out: Day 15 AUC0-24 Mean (%CV)): 2.83 µM·h
- Cmax (human, plasma, 400 mg, 400 mg (n = 9), cohort 3, day 1, plasma, read-out: Day 1 Cmax Mean (%CV)): 1440 nM
- AUC(0-t) (human, plasma, 400 mg, 400 mg (n = 9), cohort 3, day 1, read-out: Day 1 AUC0-24 Mean (%CV)): 6.95 µM·h
- Cmax (human, plasma, 400 mg, 400 mg (n = 9), cohort 3, day 15, plasma, read-out: Day 15 Cmax Mean (%CV)): 1390 nM
- AUC(0-t) (human, plasma, 400 mg, 400 mg (n = 9), cohort 3, day 15, read-out: Day 15 AUC0-24 Mean (%CV)): 7.74 µM·h
- AUC(0-inf) (human, plasma, 100 mg (n = 6), cohort 1, day 1): 0.861 µM·h
- AUC(0-inf) (human, plasma, 200 mg (n = 9), cohort 2, day 1): 3.42 µM·h
- Tmax (human, plasma, 200 mg (n = 9), cohort 2, day 15, read-out: Day 15 Tmax Median (range)): 2.1 h
- AUC(0-inf) (human, plasma, 400 mg (n = 9), cohort 3, day 1): 7.57 µM·h
Compound: C[C@H]1CN(C2COC2)CCN1c1ccc(Nc2cc(-c3ccnc(N4CCn5c(cc6c5CC(C)(C)C6)C4=O)c3CO)cn(C)c2=O)nc1 [GDC-0853]
